# Tested on: KRAS PDC tumor spheroids (HUVEC+MSC), viability
# Assay: Anticancer human tumor 254851-301-R-J1-PDC patient-derived colon carcinoma cell line growth inhibition [KRAS2]
# Settings: for IC50: curve of first compound; for viability, T/C: stronger effect = lower value
# Excerpt: Multicellular complex tumor spheroid response to RAS pathway inhibitors in combination with a targeted agents in patient-derived cell lines with oncogenic KRAS variants from multiple cancer types
# A high-throughput screen of multi-cell type tumor spheroids was designed to identify active combinations of targeted small molecules and KRAS pathway inhibitors. Complex spheroids include a stromal component modeled by human endothelial cells (HUVEC) and fibroblasts modeled by human mesenchymal stem cells (MSCs). The concentration ranges selected for each drug and investigational agent were based upon clinically achievable concentrations if the clinical Cmax of the agent was known.
# Compounds. The drugs and investigational agents: BI-3406 (NSC825286), BAY-293 (NSC824723), batoprotafib (TNO155; NSC825523), sotorasib (AMG 510; NSC818433), MRTX1257 (NSC819558), elimusertib (BAY 1895344; NSC800525), molibresib (GSK525762; NSC774829), temuterkib (LY3214996; NSC803410), venetoclax (NSC766270), alisertib (NSC759677), olaparib (NSC753686), talazoparib (NSC767125), erdafitinib (NSC781556), ipatasertib (NSC767898), cabozantinib (NSC761068), nintedanib (NSC756659), abemaciclib (NSC768073), docetaxel (NSC628503), trametinib (NSC758246), and sapanisertib (NSC764658) were obtained from the National Cancer Institute (NCI) Developmental Therapeutics Program Chemical Repository. The FDA-approved anticancer drug set is available from the Developmental Therapeutics Program. […] The stock solutions were prepared in dimethyl sulfoxide (DMSO, Sigma-Aldrich, St. Louis, MO, cat. D2650) at 800-fold the tested concentration and stored at -70 degrees C prior to their use. All drugs and investigational agents were tested over a range starting from a high concentration at or near the clinical Cmax and decreasing in half-log increments. If the clinical Cmax for an agent had not been determined, the highest concentration tested was 10 microM.
# Cell Culture. All cells were maintained in an incubator at 37 degrees C and 5% CO2 with 95% humidity. The PDC lines were cultured according to standard operating procedures established by the NCI PDMR (https://pdmr.cancer.gov/sops/default.htm). Briefly, all PDCs were thawed and cultured in Matrigel-coated flasks prepared with a working solution of 1X Ham's F-12 nutrient mix, without supplementation (Invitrogen, Waltham, MA, cat. 11765054), 100 U/mL penicillin-streptomycin (Invitrogen, cat. 15140122), and 2.5% Matrigel (Corning Inc., Corning, NY, cat. 354248) for the first three passages. All PDCs were cultured in complete DMEM/F-12 media containing advanced DMEM/F-12 (Invitrogen, cat. 12634028), 4.9% defined fetal bovine serum, heat inactivated (HyClone Laboratories Inc., Logan, UT, cat. SH30070.03HI), 389 ng/mL hydrocortisone (Sigma-Aldrich, cat. H4001), 9.7 ng/mL human EGF recombinant protein (Invitrogen, cat. PHG0313), 23.4 microg/mL adenine (Sigma-Aldrich, cat. A2786), 97.3 U/mL penicillin-streptomycin (Invitrogen, cat. 15140122), 1.9 mM L-glutamine (Invitrogen, cat. 25030081), and 9.7 microM Y-27632 dihydrochloride (Tocris Bioscience, Bristol, United Kingdom, cat. 1254). The PDCs were cultured in complete DMEM/F12 media without 9.7 microM Y-27632 dihydrochloride for at least two passages prior to the screen. The established cell line HOP-62 was cultured in RPMI 1640 medium, HEPES (Invitrogen, cat. 22400105) with 10% defined fetal bovine serum (HyClone Laboratories Inc., cat. SH30070.03) and 2 mM L-glutamine (Invitrogen, cat. 25030081). The pooled donor HUVEC were cultured in endothelial cell growth medium 2 (PromoCell, Heidelberg, Germany, cat. C-22011) and the hMSC were cultured in mesenchymal stem cell growth medium 2 (PromoCell, cat. C-28009). For all experiments, HUVEC and hMSC were used at passages </=5, while the malignant cell lines were used at passages </=15. […]
# [1] = second compound 0.1 µM, first compound 0.0316 µM
# [2] = second compound 0.316 µM, first compound 0.0316 µM
# [3] = second compound 1 µM, first compound 0.0316 µM
# [4] = second compound 3.16 µM, first compound 0.0316 µM
# [5] = second compound 10 µM, first compound 0.0316 µM
# [6] = second compound 0.1 µM, first compound 0.1 µM
# [7] = second compound 0.1 µM, first compound 0.316 µM
# [8] = second compound 0.1 µM, first compound 1 µM
# [9] = second compound 0.1 µM, first compound 3.16 µM
# [10] = second compound 0.1 µM, first compound 10 µM
# [11] = second compound 0.316 µM, first compound 0.1 µM
# [12] = second compound 0.316 µM, first compound 0.316 µM
# [13] = second compound 0.316 µM, first compound 1 µM
# [14] = second compound 0.316 µM, first compound 3.16 µM
# [15] = second compound 0.316 µM, first compound 10 µM
# [16] = second compound 1 µM, first compound 0.1 µM
# [17] = second compound 1 µM, first compound 0.316 µM
# [18] = second compound 1 µM, first compound 1 µM
# [19] = second compound 1 µM, first compound 3.16 µM
# [20] = second compound 1 µM, first compound 10 µM
# [21] = second compound 3.16 µM, first compound 0.1 µM
# [22] = second compound 3.16 µM, first compound 0.316 µM
# [23] = second compound 3.16 µM, first compound 1 µM
# [24] = second compound 3.16 µM, first compound 3.16 µM
# [25] = second compound 3.16 µM, first compound 10 µM
# [26] = second compound 10 µM, first compound 0.1 µM
# [27] = second compound 10 µM, first compound 0.316 µM
# [28] = second compound 10 µM, first compound 1 µM
# [29] = second compound 10 µM, first compound 3.16 µM
# [30] = second compound 10 µM, first compound 10 µM
# 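Further: spheroids exposed to compounds for seven days before readout.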
# 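Wherever viability, T/C is given: 100% = DMSO vehicle control luminescence of the spheroids.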
smiles,measurement,setting,value
CC(=O)Nc1cccc(-n2c(=O)n(C3CC3)c(=O)c3c(Nc4ccc(I)cc4F)n(C)c(=O)c(C)c32)c1 + C=CC(=O)N1CCN(c2nc(=O)n(-c3c(C)ccnc3C(C)C)c3nc(-c4c(O)cccc4F)c(F)cc23)C(C)C1,IC50,second compound 0.1 µM,6.27 nM
same,IC50,second compound 0.316 µM,5.14 nM
same,IC50,second compound 1 µM,6.52 nM
same,IC50,second compound 3.16 µM,6.44 nM
same,IC50,second compound 10 µM,5.08 nM
same,"viability, T/C","second compound 0.1 µM, first compound 0.0001 µM",104%
same,"viability, T/C","second compound 0.1 µM, first compound 0.000316 µM",105%
same,"viability, T/C","second compound 0.1 µM, first compound 0.001 µM",89.5%
same,"viability, T/C","second compound 0.1 µM, first compound 0.00316 µM",84.4%
same,"viability, T/C","second compound 0.1 µM, first compound 0.01 µM",27.2%
same,"viability, T/C",[1],3.31%
same,"viability, T/C","second compound 0.316 µM, first compound 0.0001 µM",102%
same,"viability, T/C","second compound 0.316 µM, first compound 0.000316 µM",103%
same,"viability, T/C","second compound 0.316 µM, first compound 0.001 µM",87.9%
same,"viability, T/C","second compound 0.316 µM, first compound 0.00316 µM",77.4%
same,"viability, T/C","second compound 0.316 µM, first compound 0.01 µM",13%
same,"viability, T/C",[2],3.29%
same,"viability, T/C","second compound 1 µM, first compound 0.0001 µM",102%
same,"viability, T/C","second compound 1 µM, first compound 0.000316 µM",96.6%
same,"viability, T/C","second compound 1 µM, first compound 0.001 µM",93.9%
same,"viability, T/C","second compound 1 µM, first compound 0.00316 µM",74.3%
same,"viability, T/C","second compound 1 µM, first compound 0.01 µM",35.5%
same,"viability, T/C",[3],3.32%
same,"viability, T/C","second compound 3.16 µM, first compound 0.0001 µM",98.5%
same,"viability, T/C","second compound 3.16 µM, first compound 0.000316 µM",99.4%
same,"viability, T/C","second compound 3.16 µM, first compound 0.001 µM",85.1%
same,"viability, T/C","second compound 3.16 µM, first compound 0.00316 µM",77%
same,"viability, T/C","second compound 3.16 µM, first compound 0.01 µM",34%
same,"viability, T/C",[4],3.35%
same,"viability, T/C","second compound 10 µM, first compound 0.0001 µM",105%
same,"viability, T/C","second compound 10 µM, first compound 0.000316 µM",105%
same,"viability, T/C","second compound 10 µM, first compound 0.001 µM",96.9%
same,"viability, T/C","second compound 10 µM, first compound 0.00316 µM",75%
same,"viability, T/C","second compound 10 µM, first compound 0.01 µM",14.6%
same,"viability, T/C",[5],3.11%
COC(=O)c1ccc2c(C(=Nc3ccc(N(C)C(=O)CN4CCN(C)CC4)cc3)c3ccccc3)c(O)[nH]c2c1 + C=CC(=O)N1CCN(c2nc(=O)n(-c3c(C)ccnc3C(C)C)c3nc(-c4c(O)cccc4F)c(F)cc23)C(C)C1,IC50,second compound 0.1 µM,> 10000 nM
same,IC50,second compound 0.316 µM,> 10000 nM
same,IC50,second compound 1 µM,> 10000 nM
same,IC50,second compound 3.16 µM,> 10000 nM
same,IC50,second compound 10 µM,> 10000 nM
same,"viability, T/C",[1],91.1%
same,"viability, T/C",[6],89.7%
same,"viability, T/C",[7],92.3%
same,"viability, T/C",[8],91.8%
same,"viability, T/C",[9],83.5%
same,"viability, T/C",[10],85%
same,"viability, T/C",[2],89%
same,"viability, T/C",[11],99.9%
same,"viability, T/C",[12],94%
same,"viability, T/C",[13],89.9%
same,"viability, T/C",[14],84.5%
same,"viability, T/C",[15],85.5%
same,"viability, T/C",[3],90.6%
same,"viability, T/C",[16],91.2%
same,"viability, T/C",[17],84.9%
same,"viability, T/C",[18],76.3%
same,"viability, T/C",[19],77.3%
same,"viability, T/C",[20],83.4%
same,"viability, T/C",[4],93%
same,"viability, T/C",[21],101%
same,"viability, T/C",[22],88.3%
same,"viability, T/C",[23],88.7%
same,"viability, T/C",[24],75%
same,"viability, T/C",[25],85.7%
same,"viability, T/C",[5],95.6%
same,"viability, T/C",[26],104%
same,"viability, T/C",[27],93.5%
same,"viability, T/C",[28],87.4%
same,"viability, T/C",[29],77.5%
same,"viability, T/C",[30],75.4%
COc1cc(Nc2ncc3c(n2)-c2ccc(Cl)cc2C(c2c(F)cccc2OC)=NC3)ccc1C(=O)O + C=CC(=O)N1CCN(c2nc(=O)n(-c3c(C)ccnc3C(C)C)c3nc(-c4c(O)cccc4F)c(F)cc23)C(C)C1,IC50,second compound 0.1 µM,89.7 nM
same,IC50,second compound 0.316 µM,107 nM
same,IC50,second compound 1 µM,59.2 nM
same,IC50,second compound 3.16 µM,110 nM
same,IC50,second compound 10 µM,122 nM
same,"viability, T/C",[1],86%
same,"viability, T/C",[6],40%
same,"viability, T/C",[7],32.7%
same,"viability, T/C",[8],28.6%
same,"viability, T/C",[9],18.9%
same,"viability, T/C",[10],9.83%
same,"viability, T/C",[2],86.7%
same,"viability, T/C",[11],45.4%
same,"viability, T/C",[12],35%
same,"viability, T/C",[13],28.8%
same,"viability, T/C",[14],19.5%
same,"viability, T/C",[15],10.7%
same,"viability, T/C",[3],56.4%
same,"viability, T/C",[16],43.1%
same,"viability, T/C",[17],36.6%
same,"viability, T/C",[18],29.3%
same,"viability, T/C",[19],21.4%
same,"viability, T/C",[20],12.3%
same,"viability, T/C",[4],77.6%
same,"viability, T/C",[21],45%
same,"viability, T/C",[22],39.1%
same,"viability, T/C",[23],29.1%
same,"viability, T/C",[24],19.2%
same,"viability, T/C",[25],13.6%
same,"viability, T/C",[5],93.3%
same,"viability, T/C",[26],47.6%
same,"viability, T/C",[27],38.4%
same,"viability, T/C",[28],32.4%
same,"viability, T/C",[29],22.4%
same,"viability, T/C",[30],17.5%

# Source: PubChem BioAssay AID1963868 (Molecular Pharmacology Branch, DTP, NCI, 2024)
